Test results published in ChEMBL document CHEMBL1201862, “PubChem BioAssay data set” (2004).
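96-well plates; 48 h exposure; 5 concentrations. Endpoints by linear interpolation between flanking doses. Not reached: highest tested concentration assigned. The concentration for 50% growth inhibition is given as GI50.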 Calls of active or inactive are those of the source. Cut-off read from the data, not from the text of the source: active = GI50 up to about 1.1 µM and inactive = higher.

Key:
Test in all cases: NCI anticancer screen, dose series, 48 h
HCT-15 = tested on: HCT-15
OVCAR-4 = tested on: OVCAR-4
SF-268 = tested on: SF-268
SF-295 = tested on: SF-295
PC-3 = tested on: PC-3
SW-620 = tested on: SW-620
NCI-H460 = tested on: NCI-H460
786-0 = tested on: 786-0
EKVX = tested on: EKVX
COLO 205 = tested on: COLO 205
NCI/ADR-RES = tested on: NCI/ADR-RES
HCC 2998 = tested on: HCC 2998
NCI-H23 = tested on: NCI-H23
SK-MEL-2 = tested on: SK-MEL-2
KM12 = tested on: KM12
SK-MEL-5 = tested on: SK-MEL-5
IGROV-1 = tested on: IGROV-1
T47D = tested on: T47D
Malme-3M = tested on: Malme-3M
A549 = tested on: A549
HT-29 = tested on: HT-29
UACC-62 = tested on: UACC-62
HOP-62 = tested on: HOP-62
DU-145 = tested on: DU-145
OVCAR-8 = tested on: OVCAR-8
UO-31 = tested on: UO-31
SF-539 = tested on: SF-539
HCT-116 = tested on: HCT-116
LOX IMVI = tested on: LOX IMVI
NCI-H226 = tested on: NCI-H226
OVCAR-5 = tested on: OVCAR-5
MOLT-4 = tested on: MOLT-4
SK-MEL-28 = tested on: SK-MEL-28
CCRF-CEM = tested on: CCRF-CEM
SNB-19 = tested on: SNB-19
MDA-MB-231 = tested on: MDA-MB-231
SNB-75 = tested on: SNB-75
RXF 393 = tested on: RXF 393
TK-10 = tested on: TK-10
HOP-92 = tested on: HOP-92
M14 = tested on: M14
RPMI-8226 = tested on: RPMI-8226
SK-OV-3 = tested on: SK-OV-3
BT-549 = tested on: BT-549
K562 = tested on: K562
MDA-N = tested on: MDA-N
OVCAR-3 = tested on: OVCAR-3
SR = tested on: SR
A498 = tested on: A498
NCI-H522 = tested on: NCI-H522
MCF7 = tested on: MCF7
MDA-MB-435 = tested on: MDA-MB-435
Hs-578T = tested on: Hs-578T
HL-60 = tested on: HL-60
ACHN = tested on: ACHN
SN12C = tested on: SN12C
U-251 = tested on: U-251
UACC-257 = tested on: UACC-257
CAKI-1 = tested on: CAKI-1

SMILES: C=C1CC/C=C(\C)CCC[C@H](C)[C@@H](O)[C@@H]2OC(=O)C(=C)[C@@H]2C[C@H]1O
- GI50 (HCT-15): 3.42 µM
- GI50 (OVCAR-4): 19.1 µM (inactive)
- GI50 (SF-268): 8.26 µM (inactive)
- GI50 (SF-295): 17.2 µM (inactive)
- GI50 (PC-3): 10 µM (inactive)
- GI50 (SW-620): 2.22 µM (inactive)
- GI50 (NCI-H460): 8.99 µM (inactive)
- GI50 (786-0): 3.8 µM (inactive)
- GI50 (EKVX): 5.73 µM (inactive)
- GI50 (COLO 205): 2.83 µM (inactive)
- GI50 (NCI/ADR-RES): 8.3 µM (inactive)
- GI50 (HCC 2998): 18.4 µM (inactive)
- GI50 (NCI-H23): 12.5 µM (inactive)
- GI50 (SK-MEL-2): 13.3 µM (inactive)
- GI50 (KM12): 15 µM (inactive)
- GI50 (SK-MEL-5): 5.05 µM (inactive)
- GI50 (IGROV-1): 3.88 µM (inactive)
- GI50 (T47D): 8.24 µM (inactive)
- GI50 (Malme-3M): 5.96 µM (inactive)
- GI50 (A549): 17.1 µM (inactive)
- GI50 (HT-29): 4.22 µM (inactive)
- GI50 (UACC-62): 8.91 µM (inactive)
- GI50 (HOP-62): 16 µM (inactive)
- GI50 (DU-145): 4.57 µM (inactive)
- GI50 (OVCAR-8): 4.71 µM (inactive)
- GI50 (UO-31): 6.22 µM (inactive)
- GI50 (SF-539): 2.27 µM (inactive)
- GI50 (HCT-116): 6.47 µM (inactive)
- GI50 (LOX IMVI): 3.69 µM (inactive)
- GI50 (NCI-H226): 4.05 µM (inactive)
- GI50 (OVCAR-5): 17.3 µM (inactive)
- GI50 (MOLT-4): 2.13 µM (inactive)
- GI50 (SK-MEL-28): 2.99 µM (inactive)
- GI50 (CCRF-CEM): 1.14 µM (inactive)
- GI50 (SNB-19): 14.8 µM (inactive)
- GI50 (MDA-MB-231): 14.9 µM (inactive)
- GI50 (SNB-75): 12 µM (inactive)
- GI50 (RXF 393): 4.25 µM (inactive)
- GI50 (TK-10): 1.49 µM (inactive)
- GI50 (HOP-92): 1.18 µM (inactive)
- GI50 (M14): 4.75 µM (inactive)
- GI50 (RPMI-8226): 3.52 µM (inactive)
- GI50 (SK-OV-3): 29.8 µM (inactive)
- GI50 (BT-549): 0.288 µM (active)
- GI50 (K562): 2.99 µM (inactive)
- GI50 (MDA-N): 8.47 µM (inactive)
- GI50 (OVCAR-3): 9.12 µM (inactive)
- GI50 (SR): 4.83 µM (inactive)
- GI50 (A498): 66.4 µM (inactive)
- GI50 (NCI-H522): 1.84 µM (inactive)
- GI50 (MCF7): 4 µM (inactive)
- GI50 (MDA-MB-435): 3.62 µM (inactive)
- GI50 (Hs-578T): 7.91 µM (inactive)
- GI50 (HL-60): 2.42 µM (inactive)
- GI50 (ACHN): 2.73 µM (inactive)
- GI50 (SN12C): 5.93 µM (inactive)
- GI50 (U-251): 18.1 µM (inactive)
- GI50 (UACC-257): 9.77 µM (inactive)
- GI50 (CAKI-1): 3.94 µM (inactive)

SMILES: Cc1coc2c1C(OC(=O)C(C)C)C1(C)C(C)CCC(O)C1C2=O (centres undefined)
- GI50 (HCT-15): > 100 µM
- GI50 (OVCAR-4): > 100 µM (inactive)
- GI50 (SF-268): > 100 µM (inactive)
- GI50 (SF-295): > 100 µM (inactive)
- GI50 (PC-3): 97.9 µM (inactive)
- GI50 (SW-620): > 100 µM (inactive)
- GI50 (NCI-H460): > 100 µM (inactive)
- GI50 (786-0): > 100 µM (inactive)
- GI50 (EKVX): > 100 µM (inactive)
- GI50 (COLO 205): 97.7 µM (inactive)
- GI50 (NCI/ADR-RES): > 100 µM (inactive)
- GI50 (HCC 2998): > 91.4 µM (inactive)
- GI50 (NCI-H23): > 100 µM (inactive)
- GI50 (SK-MEL-2): > 100 µM (inactive)
- GI50 (KM12): > 100 µM (inactive)
- GI50 (SK-MEL-5): > 100 µM (inactive)
- GI50 (IGROV-1): > 100 µM (inactive)
- GI50 (T47D): > 100 µM (inactive)
- GI50 (Malme-3M): > 100 µM (inactive)
- GI50 (A549): > 100 µM (inactive)
- GI50 (HT-29): > 100 µM (inactive)
- GI50 (UACC-62): > 100 µM (inactive)
- GI50 (HOP-62): > 100 µM (inactive)
- GI50 (DU-145): > 100 µM (inactive)
- GI50 (OVCAR-8): > 100 µM (inactive)
- GI50 (UO-31): 50.2 µM (inactive)
- GI50 (SF-539): > 100 µM (inactive)
- GI50 (HCT-116): > 100 µM (inactive)
- GI50 (LOX IMVI): > 100 µM (inactive)
- GI50 (NCI-H226): > 100 µM (inactive)
- GI50 (OVCAR-5): > 100 µM (inactive)
- GI50 (MOLT-4): 93.1 µM (inactive)
- GI50 (SK-MEL-28): > 100 µM (inactive)
- GI50 (CCRF-CEM): 57.4 µM (inactive)
- GI50 (MDA-MB-231): > 100 µM (inactive)
- GI50 (SNB-75): > 100 µM (inactive)
- GI50 (RXF 393): > 100 µM (inactive)
- GI50 (TK-10): > 100 µM (inactive)
- GI50 (HOP-92): > 100 µM (inactive)
- GI50 (M14): > 100 µM (inactive)
- GI50 (RPMI-8226): 89.5 µM (inactive)
- GI50 (SK-OV-3): > 100 µM (inactive)
- GI50 (BT-549): > 50.8 µM (inactive)
- GI50 (K562): 54 µM (inactive)
- GI50 (MDA-N): > 100 µM (inactive)
- GI50 (OVCAR-3): > 100 µM (inactive)
- GI50 (SR): 51.2 µM (inactive)
- GI50 (A498): > 100 µM (inactive)
- GI50 (NCI-H522): 67.1 µM (inactive)
- GI50 (MCF7): 98.2 µM (inactive)
- GI50 (MDA-MB-435): > 100 µM (inactive)
- GI50 (Hs-578T): > 100 µM (inactive)
- GI50 (HL-60): 46 µM (inactive)
- GI50 (ACHN): > 100 µM (inactive)
- GI50 (SN12C): > 100 µM (inactive)
- GI50 (U-251): > 100 µM (inactive)
- GI50 (UACC-257): > 100 µM (inactive)
- GI50 (CAKI-1): > 100 µM (inactive)

SMILES: CCC/C=C/C=C/C(=O)OC1C(C)C2(O)C3C=C(C)C(=O)C3CC(COC(C)=O)=CC2C2C(C)(C)C12OC(=O)C(C)C (centres undefined)
- GI50 (OVCAR-4): 22.9 µM (inactive)
- GI50 (SF-268): 13.8 µM (inactive)
- GI50 (SF-295): 0.462 µM (active)
- GI50 (PC-3): 11.6 µM (inactive)
- GI50 (SW-620): 0.622 µM (active)
- GI50 (NCI-H460): 3.08 µM (inactive)
- GI50 (786-0): 9.62 µM (inactive)
- GI50 (EKVX): 19.4 µM (inactive)
- GI50 (COLO 205): 0.197 µM (active)
- GI50 (NCI/ADR-RES): 21.5 µM (inactive)
- GI50 (HCC 2998): 0.329 µM (active)
- GI50 (NCI-H23): 12.8 µM (inactive)
- GI50 (SK-MEL-2): 18.4 µM (inactive)
- GI50 (KM12): 16.9 µM (inactive)
- GI50 (SK-MEL-5): 1.84 µM (inactive)
- GI50 (IGROV-1): 16.8 µM (inactive)
- GI50 (T47D): 18.5 µM (inactive)
- GI50 (Malme-3M): 13.4 µM (inactive)
- GI50 (A549): 0.406 µM (active)
- GI50 (HT-29): 12.1 µM (inactive)
- GI50 (UACC-62): 11.2 µM (inactive)
- GI50 (HOP-62): 0.0438 µM (active)
- GI50 (DU-145): 29.6 µM (inactive)
- GI50 (OVCAR-8): 22.8 µM (inactive)
- GI50 (UO-31): 15.4 µM (inactive)
- GI50 (SF-539): 11.7 µM (inactive)
- GI50 (HCT-116): 13.8 µM (inactive)
- GI50 (LOX IMVI): 19.7 µM (inactive)
- GI50 (NCI-H226): 15.8 µM (inactive)
- GI50 (OVCAR-5): 26.1 µM (inactive)
- GI50 (MOLT-4): 0.966 µM (active)
- GI50 (SK-MEL-28): 13 µM (inactive)
- GI50 (CCRF-CEM): 0.137 µM (active)
- GI50 (SNB-19): 25.7 µM (inactive)
- GI50 (MDA-MB-231): 3.92 µM (inactive)
- GI50 (SNB-75): 10.3 µM (inactive)
- GI50 (RXF 393): 17.5 µM (inactive)
- GI50 (TK-10): 13.5 µM (inactive)
- GI50 (HOP-92): 8.81 µM (inactive)
- GI50 (M14): 14.1 µM (inactive)
- GI50 (RPMI-8226): 11.8 µM (inactive)
- GI50 (SK-OV-3): 53.1 µM (inactive)
- GI50 (BT-549): 20.7 µM (inactive)
- GI50 (K562): 0.091 µM (active)
- GI50 (MDA-N): 0.29 µM (active)
- GI50 (OVCAR-3): 17.1 µM (inactive)
- GI50 (SR): 10.7 µM (inactive)
- GI50 (A498): 1.66 µM (inactive)
- GI50 (NCI-H522): 13.4 µM (inactive)
- GI50 (MCF7): 17.2 µM (inactive)
- GI50 (MDA-MB-435): 0.303 µM (active)
- GI50 (Hs-578T): 0.084 µM (active)
- GI50 (HL-60): 0.532 µM (active)
- GI50 (ACHN): 9.46 µM (inactive)
- GI50 (SN12C): 11 µM (inactive)
- GI50 (UACC-257): 16.7 µM (inactive)
- GI50 (CAKI-1): 0.83 µM (active)
